Consider eight compounds from patent publication US20150374709A1, “TETRA-SUBSTITUTED NDGA DERIVATIVES VIA ETHER BONDS AND CARBAMATE BONDS AND THEIR SYNTHESIS AND PHARMACEUTICAL USE” (ERIMOS PHARMACEUTICALS LLC, priority 2006, published 2015).

“And” between values parts separate entries of the source, which are not always exact repeats. Equal entries are not always repeated. Structures can show the parent of a compound that is named as a salt. Where two headings read alike, the source gives them in different places.

For data set [1], the system named is A549 (lung carcinoma). The experiment in a line: MTS cell viability assay, A549. As to conditions: Homo sapiens. Format: cell-based. The source says:
(§1) Studies performed regarding cytotoxicity included the well-known MTS, Trypan Blue and MTT protocols. The MTS studies were done using the CellTiter 96®AQueous One Solution Cell Proliferation Assay (Promega Corporation, Madison, Wis. USA). Metabolically active, namely viable, cells turn MTS, a tetrazolium compound (3-(4,5-dimethylthiazol-2-yl)-5-(3-carboxymethoxyphenyl)-2-(4-sulfophenyl)-2H-tetrazolium, inner salt) into colored formazan, which is soluble in tissue culture medium. The measurement of the absorbance of the formazan is read at 490 nm. The ready to use reagent is added directly to the cells in media in 96-well plates, incubated 1-4 hours and the results are recorded by the plate reader. The IC50 is estimated by graphing the gathered data. The IC50 is the concentration of the tested material that inhibits 50% of growth or viability of the tested material compared to a control.
(§2) Three cell lines obtained from ATCC and maintained as directed by ATCC were tested: HeLa (cervical adenocarcinoma), A549 (lung carcinoma), and COS-7 (SV40 transformed monkey kidney). Studies of these cell lines are considered to be indicative of the effect of tested substances on mammalian, including human, diseases.
(§3) All compounds were dissolved in DMSO and DMSO is used as the placebo. The samples were first dissolved into 10 mM dilutions in DMSO and then diluted further to 5, 1, 0.5, 0.1, 0.05, and 0.01 mM solutions. These solutions were added to the media at a 1% concentration (1 μl to 100 μl media) to treat the cells with 100, 50, 10, 5, 1, 0.5, and 0.1 μM of the compound. […] Solutions were checked before use for precipitation, especially the 10 mM solutions. If there was precipitation, they were warmed 65° C. and added to warmed media.
(§4) Wells on a 96-well plate were seeded with 1.5-8×10^4 cells in 100 μl media and incubated overnight. The outside wells of the plate were filled with 200 μl sterile, deionized (DI) water to curb media evaporation. After 24 hours, test chemicals were prepared in media at a concentration of 1% media volume. The test sample media were added, mixing with pipette before adding 100 μl per well. Media was added to the “Media Only” wells. The well plate and its contents were incubated for 24-72 hours, depending on the study conducted. On the thy of the MTS assay, the MTS reagent was removed from the refrigerator and brought to room temperature. Using the multichannel pipette, 20 μl of the MTS reagent was added to each well and incubated for one to four hours. The plate was read at 490 nm with a reference wavelength of 690 nm after one hour in the incubator thereafter until the blank wells were at about 0.2 OD. The results were then scanned into a Microsoft® Excel® template designed to perform all necessary calculations whim data are entered. The data were checked for statistical errors; data points that are within 10% of the mean of the data points for that group were included. The average of the blanks (“Media Only”) were subtracted and the data were inserted into a chart that represents growth response, treated/untreated.

In data set [2] the test system is survivin. Nature of the data set: ELISA survivin assay (cell lysates). Format: cell-based, Human. An excerpt: Survivin is an inhibitor of apoptosis that is abundantly expressed in many human cancers, but not in normal adult human tissue, and is considered a possible modulator of the terminal effector phase of cell death/survival. Survivin is expressed in G2-M in a cell cycle-dependent manner, binding directly to mitotic spindle microtubules. […] Phosphorylated survivin acts on the caspase pathway to suppress the formation of caspase-3 and caspase-9, thereby inhibiting apoptosis. Thus, compounds that reduce the expression of survivin will be expected to increase the rate of apoptosis and cell death.
Effects of the tested compounds on survivin were studied following manufacturer's instructions using the Surveyor™ IC Human Total Survivin Immunoassay, Catalog No. SUV647 (R&D Systems, Inc.). Cell lysates were analyzed for survivin protein content. The kit includes a plate coated with an antibody specific for survivin and a biotinylated antibody reagent that recognizes survivin bound to the plate. The plate is read on a plate reader set at 450 nm and corrected at 540 nm. A protein assay according to the Bradford method (Bradford, M. 1976, Anal Biochem 72: 248-254) was used to quantify and normalize the samples according to total protein content. Results from a standard curve enable the user to quantify the amount of survivin protein in each sample.

For data set [3], the system named is VEGF. The experiment in a line: ELISA VEGF assay (DFO-treated cells). The format is cell-based, Human. As to conditions: VEGF released into media by DFO-treated cells, normalized to cell count, read-out: VEGF IC50. An excerpt: ELISA (Enzyme-Linked ImmunoSorbent Assay) VEGF studies were done following manufacturer's instructions using the Endogen® Human VEGF ELISA kit, Catalog No. […] (Pierce Biotechnology, Inc., Rockford, Ill. USA). Hypoxic conditions are created for the cells by treating them with desferrioxamine (DFO), which chelates iron and causes the cells to secrete VEGF into the media. The supernatant (media) was removed and frozen for testing, and the cells were counted with the Trypan Blue assay so that the results can be normalized to cell count. The VEGF is measured with a sandwich ELISA that captures the protein in media on an antibody-coated microplate, and then uses a biotinylated antibody reagent to detect the protein. Results from a standard curve enable the user to quantify the amount of protein in each sample.

Data set [4] has as its system apoptosis of cells based on DNA fragmentation. Nature of the data set: TiterTACS DNA fragmentation apoptosis assay. Format: cell-based. To be noted: TiterTACS apoptosis detection. As for the experimental part: Antiproliferative activity is determined using the TiterTACS® Apoptosis Detection Kit (R&D Systems Inc., Minneapolis, Minn. USA) relating to apoptosis of cells based on DNA fragmentation, and by the ELISA VEGF ([…]) and survivin assays.
In the DNA fragmentation assay, in situ detection of apoptosis is specifically achieved with TiterTACS® 96-well Apoptosis Detection kit, Catalog No. TA600 (R&D Systems, Inc.). The TiterTACS® assay provides quantification of apoptosis in cultured cells without direct counting of labeled cells using colorimetric detection. Cells are treated with the test compounds, left untreated as experimental negative controls, or treated with TACS nuclease as positive controls. TACS nuclease allows positive controls to be generated for each experimental system: a brief treatment of cells with the TACS nuclease prior to labeling generates DNA breaks in every cell, providing an appropriate positive control specific for the system under study. The TdT enzyme that catalyzes the addition of dNTPs to DNA fragments allows for colorimetric detection of at 450 nm by using a streptavidin-HRP solution followed by the TACS-Sapphire substrate. A high absorbance at 450 nm is indicative of apoptosis in the cells. Treated cells are compared to untreated cells and to nuclease-cleaved cells to assess the extent of apoptosis.

In data set [5] the test system is HeLa (cervical adenocarcinoma). The experiment in a line: MTS cell viability assay, HeLa. Format: cell-based. As to conditions: Homo sapiens, HeLa, read-out: HeLa IC50.
Description: as §1, §2, §3, §4

The test system of data set [6] is Caco-2 cell monolayers. Nature of the data set: Caco-2 monolayer bidirectional permeability. The format is in vitro ADME, human. As for the experimental part:
(§5) Permeability studies were conducted by an outside contractor on behalf of the assignee of the present invention and application to determine the permeability of Compound A through Caco-2 monolayers. An important factor of oral bioavailability is the ability of e compound to be absorbed in the small intestine. Measurement of drug apparent permeability (Papp) through cell monolayers is well correlated with human intestinal absorption, and several mammalian cell lines, including Caco-2, LLC-PK1 and MDCK, are appropriate for this measurement (Artursson, P. et al., Correlation between oral drug absorption in humans and apparent drug permeability coefficients in human intestinal epithelial (Caco-2) cells. Biochem Biophys Res Comm 175:880-885 (1991); Stewart. B. H., et al., Comparison of intestinal permeabilities in multiple in vitro and in situ models: relationship to absorption in humans. Pharm Res 12:693 (1995)). P-Glycoprotein (P-gp, encoded by MDR1) is a member of the ABC transporter super family and is expressed in the human intestine, liver and other tissues. Intestinal expression of P-gp may affect the oral bioavailability of drug molecules that are substrates for this transporter. Interaction with P-gp can be studied using direct assays of drug transport in polarized cell systems such as Caco-2 cell monolayers, and human P-gp cDNA-expressing LLC-PK1 and MDCK cell monolayers. Caco-2 cells (human adenocarcinoma colonic cell line Caco-2, ATCC Cat. No. […] The cells were cultured for 21-25 days with media replacement every 3-4 days. Monolayer integrity was evaluated by pre-experimental trans-epithelial electrical resistance (TEER) measurements and post-experimental lucifer yellow A to B flux determinations. […] Receiver solution was prepared by adding 1% DMSO to transport buffer. The test solution was of Compound A in DMSO in transport buffer at a final DMSO concentration of 1%. […] The donor and receiver solutions were added to the apical or basolateral chambers of the monolayers (depending on the direction of transport to be measured). The monolayers were incubated on an orbital shaker (50 rpm) at 37° C., with ambient humidity and CO2. After 90 minutes, samples from the donor and receiver chambers were removed for analysis. […] Duplicate monolayers were used for each incubation. Samples were analyzed by LC/MS/MS using peak area ratios to an internal standard. Test article concentrations were calculated based on the peak area ratios obtained for appropriate dilutions of the donor solution containing the test article at the nominal concentration in transport buffer. Samples were diluted as appropriate to ensure that the response was within the linear range of the mass spec detector. Comparator and control samples were analyzed by liquid scintillation counting. Lucifer yellow concentrations were determined using a fluorescence plate reader.

A short description of data set [7]: Caco-2 monolayer bidirectional permeability. The format is in vitro ADME, human. To be noted: human, Caco-2, pH 7.4; control at 5 μM, 90 minutes, duplicate monolayers. As for the experimental part: as §5
[8] abbreviates: A549, MTS assay, read-out: A549 IC50.
Setting [9] is: survivin protein in cell lysates, normalized to total protein; read-out: Survivin IC50.

Regarding `C[C@H](Cc1ccc(OCCCCN2CCCCC2)c(OCCCCN2CCCCC2)c1)[C@@H](C)Cc1ccc(OCCCCN2CCCCC2)c(OCCCCN2CCCCC2)c1` [Compound D, 1,4-bis{3,4-bis[4-(N-piperidino)butoxyl]phenyl}-2,3-dimethyl-(2R,3S)-butane tetrakis-hydrochloride salt], the IC50 is 1 to 5 µM in data set [1] (setting [8]); ~4 µM and 4 µM in data set [2] (setting [9]); ~9 µM and 9 µM in data set [3]; 5 to 10 µM in data set [5] (MTS assay). For the same compound, the DNA fragmentation result in data set [4] is “Positive”.

Turning to `C[C@H](Cc1ccc(OCCN(C)C)c(OCCN(C)C)c1)[C@@H](C)Cc1ccc(OCCN(C)C)c(OCCN(C)C)c1` [Compound G, 1,4-bis{3,4-bis(2-(N,N′-dimethylamino)-ethoxy)phenyl}-2,3-dimethyl-(2R,3S)-butane], the IC50 in data set [1] (A549, read-out: A549 IC50) is 15 to 20 µM; in data set [3] (listed as G in H2O) it was 25 µM; in data set [5] it was 15 to 20 µM.

As for `C[C@H](Cc1ccc(OCCN(C)C)c(OCCN(C)C)c1)[C@@H](C)Cc1ccc(OCCN(C)C)c(OCCN(C)C)c1` [Compound H, 1,4-bis{3,4-bis(2-(N,N′-dimethylamino)-ethoxy)phenyl}-2,3-dimethyl-(2R,3S)-butane tetrakishydrochloride salt], the IC50 is 10 µM in data set [2] (read-out: Survivin IC50; survivin protein in cell lysates, normalized to total protein) and 23 µM in data set [3] (listed as H in H2O). Besides, the DNA fragmentation result in data set [4] is given as “Positive”.

In the case of `C[C@H](Cc1ccc(OCCF)c(OCCF)c1)[C@@H](C)Cc1ccc(OCCF)c(OCCF)c1` [Compound K, 1,4-bis[3,4-bis(2-fluoro-ethoxyl)phenyl]-2,3-dimethyl-(2R,3S)-butane], the 50% inhibitory concentration (IC50) in data set [1] (setting [8]) and in data set [5] (MTS assay) was above 100 µM throughout.

Consider `C[C@H](Cc1ccc(OCCCCN2CCOCC2)c(OCCCCN2CCOCC2)c1)[C@@H](C)Cc1ccc(OCCCCN2CCOCC2)c(OCCCCN2CCOCC2)c1` [Compound M, 1,4-bis{3,4-bis[4-(N-morpholino)butoxyl]phenyl}-2,3-dimethyl-(2R,3S)-butane], for which the IC50 in data set [1] (setting [8]) is 1 to 5 µM; in data set [2] (setting [9]), 5 µM; in data set [3], ~9 µM and 9 µM; in data set [5] (MTS assay), 5 to 10 µM. For the same compound, the DNA fragmentation entry in data set [4] is reported as “Positive”.

For the compound `C[C@H]1O[C@@H](O[C@H]2[C@@H](O)C[C@H](O[C@H]3[C@@H](O)C[C@H](O[C@H]4CC[C@@]5(C)[C@H](CC[C@@H]6[C@@H]5C[C@@H](O)[C@]5(C)[C@@H](C7=CC(=O)OC7)CC[C@]65O)C4)O[C@@H]3C)O[C@@H]2C)C[C@H](O)[C@@H]1O` [digoxin, reference compound], the “Papp mean A to B” value in data set [6] (comparators/control at the concentration in the row (5 or 50 μM), 90 minutes, duplicate monolayers) amounted to 2.28 ×10⁻⁶ cm/s. Besides, the “Mass balance mean A to B” value in data set [6] (comparators/control, 90 minutes) is recorded as 73%. The “Mass balance mean B to A” value in data set [6] (control, 90 minutes) came to 79%. Besides, the basolateral-to-apical permeability (Papp B→A) at 90 min in data set [7] came out at 12.4 ×10⁻⁶ cm/s.

For `OC[C@@H](O)[C@@H](O)[C@H](O)[C@H](O)CO` [mannitol, reference compound], the “Mass balance mean A to B” value in data set [6] (human, Caco-2, 90 min, pH 7.4) amounted to 96%.

Take `CC(C)NCC(O)COc1cccc2ccccc12` (stereo not drawn) [propranolol, reference compound]: the “Mass balance mean A to B” value in data set [6] (human, Caco-2, 90 min, pH 7.4) was 71%.
